Test results reported in ChEMBL document CHEMBL2073845, “Structure, function, and regional distribution of the organic cation transporter OCT3 in the kidney” (Am J Physiol Renal Physiol, 2000).

Experiments:
[1] = biological target: T1, OCT3 (SLC22A3) (Mus musculus, UniProt Q9WTW5); assay: TP_TRANSPORTER: inhibition of TEA uptake (TEA: 20 uM, MPTP: 5000 uM) in OCT3-expressing HRPE cells; assay type: functional, cell-based; conditions: human, HRPE cells that express OCT3, probe TEA
T1 sequence (Q9WTW5 whole entry): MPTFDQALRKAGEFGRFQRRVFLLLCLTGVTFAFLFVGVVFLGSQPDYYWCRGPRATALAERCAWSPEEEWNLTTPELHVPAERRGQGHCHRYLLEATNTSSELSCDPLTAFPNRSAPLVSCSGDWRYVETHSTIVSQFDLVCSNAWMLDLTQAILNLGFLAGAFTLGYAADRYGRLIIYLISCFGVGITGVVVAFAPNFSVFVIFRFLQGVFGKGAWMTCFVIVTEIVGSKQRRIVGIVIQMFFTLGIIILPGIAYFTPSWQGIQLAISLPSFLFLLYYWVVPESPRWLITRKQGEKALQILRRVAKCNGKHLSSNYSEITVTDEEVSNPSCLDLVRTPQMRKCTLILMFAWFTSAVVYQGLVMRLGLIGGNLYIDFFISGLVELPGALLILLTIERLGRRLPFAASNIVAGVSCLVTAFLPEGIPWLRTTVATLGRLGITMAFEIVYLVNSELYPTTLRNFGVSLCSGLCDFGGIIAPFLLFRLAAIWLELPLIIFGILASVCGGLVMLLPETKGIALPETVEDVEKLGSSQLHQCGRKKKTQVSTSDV

[2] = biological target: T1, OCT3 (SLC22A3); assay: in vitro; conditions: human, HRPE cells that express OCT3, probe TEA
[3] = biological target: T2, Solute carrier family 22 member 3 (Homo sapiens, UniProt O75751); assay: TP_TRANSPORTER: inhibition of MPP+ uptake in OCT3-expressing HRPE cells; assay type: functional, cell-based
T2 sequence (O75751 whole entry): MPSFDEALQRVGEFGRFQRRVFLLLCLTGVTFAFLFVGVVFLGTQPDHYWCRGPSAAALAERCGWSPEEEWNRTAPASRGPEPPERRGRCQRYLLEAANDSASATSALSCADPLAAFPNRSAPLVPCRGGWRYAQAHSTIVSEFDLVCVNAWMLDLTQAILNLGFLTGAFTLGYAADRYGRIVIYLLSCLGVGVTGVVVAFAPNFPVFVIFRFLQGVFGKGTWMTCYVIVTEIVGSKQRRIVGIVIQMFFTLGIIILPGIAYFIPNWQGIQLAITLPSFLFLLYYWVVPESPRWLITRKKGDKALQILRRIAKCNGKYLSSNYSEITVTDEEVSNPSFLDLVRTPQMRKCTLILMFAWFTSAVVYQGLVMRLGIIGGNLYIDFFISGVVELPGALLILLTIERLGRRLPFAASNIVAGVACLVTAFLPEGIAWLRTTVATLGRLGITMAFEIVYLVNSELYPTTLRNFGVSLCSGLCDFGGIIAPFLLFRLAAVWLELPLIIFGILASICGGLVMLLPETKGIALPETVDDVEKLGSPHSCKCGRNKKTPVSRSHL

[4] = biological target: T3, Solute carrier family 22 member 3 (Mus musculus, UniProt Q9WTW5); assay: TP_TRANSPORTER: inhibition of TEA uptake (TEA: 20 uM, Guanidine: 5000 uM) in OCT3-expressing HRPE cells; assay type: functional, cell-based; conditions: human
T3 sequence (Q9WTW5 whole entry): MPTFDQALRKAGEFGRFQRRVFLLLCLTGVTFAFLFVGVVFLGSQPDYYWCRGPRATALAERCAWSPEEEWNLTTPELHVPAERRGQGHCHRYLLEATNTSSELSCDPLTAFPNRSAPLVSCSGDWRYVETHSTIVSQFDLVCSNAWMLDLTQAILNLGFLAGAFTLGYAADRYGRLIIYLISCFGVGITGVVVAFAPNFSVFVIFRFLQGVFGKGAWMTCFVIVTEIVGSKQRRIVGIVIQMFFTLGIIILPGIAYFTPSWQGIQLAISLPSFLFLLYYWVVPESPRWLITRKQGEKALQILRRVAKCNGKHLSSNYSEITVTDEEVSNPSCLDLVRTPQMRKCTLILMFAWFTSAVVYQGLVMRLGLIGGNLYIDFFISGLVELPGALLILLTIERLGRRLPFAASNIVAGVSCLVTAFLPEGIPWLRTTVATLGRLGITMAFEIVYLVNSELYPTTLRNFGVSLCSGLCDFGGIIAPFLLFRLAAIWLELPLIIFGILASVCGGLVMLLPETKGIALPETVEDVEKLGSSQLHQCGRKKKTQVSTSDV

[5] = biological target: T3, Solute carrier family 22 member 3; assay: TP_TRANSPORTER: uptake in Xenopus laevis oocytes; assay type: functional, cell-based; conditions: oocyte
[6] = biological target: T1, OCT3 (SLC22A3); assay: in vitro; conditions: human, HRPE cells that express OCT3, probe TEA; remark: listed apart in the source
[7] = biological target: T2, Solute carrier family 22 member 3; assay: TP_TRANSPORTER: uptake in OCT3-expressing HRPE cells; assay type: functional, cell-based
[8] = biological target: T1, OCT3 (SLC22A3); assay: TP_TRANSPORTER: inhibition of TEA uptake (TEA: 20 uM, MPP+: 5000 uM) in OCT3-expressing HRPE cells; assay type: functional, cell-based; conditions: human, HRPE cells that express OCT3, probe TEA
[9] = biological target: T3, Solute carrier family 22 member 3; assay: TP_TRANSPORTER: inhibition of TEA uptake (TEA: 20 uM, NMN: 5000 uM) in OCT3-expressing HRPE cells; assay type: functional, cell-based; conditions: human
[10] = substrate: CC[N+](CC)(CC)CC; assay: cells, lysate or membranes named

Question: With `CN1CC=C(c2ccccc2)CC1` as the molecule, how does the inhibition at 5000 µM [1] read?
Answer: > 90%

Question: For `CN/C(=N/CCSCc1nc[nH]c1C)NC#N` [CIMETIDINE], which inhibition at 5000 µM [2] is on record?
Answer: > 90%

Question: For `CN(C)CCCN1c2ccccc2CCc2ccccc21` [IMIPRAMINE], which Ki [3] is on record?
Answer: 42 µM

Question: Which Inhibition [4] does the source give for `N=C(N)N` [GUANIDINE] here?
Answer: inhibitor [60-70 % inhibition]

Question: And the Activity [5]?
Answer: substrate [+]

Question: What about the Ki [3] of the same molecule?
Answer: 6200 µM

Question: With `Clc1cccc(Cl)c1N=C1NCCN1` [CLONIDINE] as the molecule, how does the inhibition at 5000 µM [6] read?
Answer: > 90%

Question: What about the Ki [3] of the same molecule?
Answer: 373 µM

Question: Which results are given for `CC[N+](CC)(CC)CC` [TETRYLAMMONIUM]?
Answer: Activity [7]: substrate [+]; Activity [5]: substrate [+]; Ki [3]: 1370 µM

Question: Which Ki [3] does the source give for `CNCCCN1c2ccccc2CCc2ccccc21` [DESIPRAMINE] here?
Answer: 14 µM

Question: Which Ki [3] does the source give for `CCN(CC)CCNC(=O)c1ccc(N)cc1` [PROCAINAMIDE] here?
Answer: 738 µM

Question: How did the inhibition at 5000 µM [8] turn out when `C[n+]1ccc(-c2ccccc2)cc1` was run?
Answer: > 90%

Question: What about the Activity [5] of the same molecule?
Answer: substrate [+]

Question: And the Ki [3]?
Answer: 54 µM

Question: For `CNC(=O)c1cccnc1` [NICOTINYL METHYLAMIDE], which Inhibition [9] is on record?
Answer: inhibitor [60-70 % inhibition]

B1: Solute carrier family 22 member 3 (Mus musculus) (protein)
chain: MPTFDQALRKAGEFGRFQRRVFLLLCLTGVTFAFLFVGVVFLGSQPDYYWCRGPRATALAERCAWSPEEEWNLTTPELHVPAERRGQGHCHRYLLEATNTSSELSCDPLTAFPNRSAPLVSCSGDWRYVETHSTIVSQFDLVCSNAWMLDLTQAILNLGFLAGAFTLGYAADRYGRLIIYLISCFGVGITGVVVAFAPNFSVFVIFRFLQGVFGKGAWMTCFVIVTEIVGSKQRRIVGIVIQMFFTLGIIILPGIAYFTPSWQGIQLAISLPSFLFLLYYWVVPESPRWLITRKQGEKALQILRRVAKCNGKHLSSNYSEITVTDEEVSNPSCLDLVRTPQMRKCTLILMFAWFTSAVVYQGLVMRLGLIGGNLYIDFFISGLVELPGALLILLTIERLGRRLPFAASNIVAGVSCLVTAFLPEGIPWLRTTVATLGRLGITMAFEIVYLVNSELYPTTLRNFGVSLCSGLCDFGGIIAPFLLFRLAAIWLELPLIIFGILASVCGGLVMLLPETKGIALPETVEDVEKLGSSQLHQCGRKKKTQVSTSDV
Question: For B1, which Km [10] is on record?
Answer: 1900 µM
